# Test system: Plasmopara viticola
# Test: Activity against peronospora of grapevines caused by Plasmopara viticola (protective spray on potted vines)
# Assay type: in vivo
# Settings: individual active compound, grapevine leaves cv. Müller-Thurgau, untreated control 81% infection
# Procedure: The active compounds, separately or jointly, were prepared as a stock solution comprising 0.25% by weight of active compound in acetone or DMSO. 1% by weight of the emulsifier Uniperol® EL (wetting agent having emulsifying and dispersant action based on ethoxylated alkylphenols) was added to this solution, and the mixture was diluted with water to the desired concentration.
# Use example—Activity against peronospora of grapevines caused by Plasmopara viticola
# Leaves of potted vines of the cultivar “Müller-Thurgau” were sprayed to runoff point with an aqueous suspension having the concentration of active compound stated below. The next day, the undersides of the leaves were inoculated with an aqueous zoospore suspension of Plasmopara viticola. The grapevines were then initially placed in a water-vapor-saturated chamber at 24° C. for 48 hours and then in a greenhouse at 20-30° C. for 5 days. After this period of time, the plants were again placed in a humid chamber for 16 hours to promote sporangiophore eruption. The extent of the development of the disease on the undersides of the leaves was then determined visually.
# The visually determined percentages of infected leaf areas were converted into efficacies in % of the untreated control:
# The efficacy (E) is calculated as follows using Abbot's formula: E=(1−α/β)−100 α corresponds to the fungicidal infection of the treated plants in % and β corresponds to the fungicidal infection of the untreated (control) plants in %
# An efficacy of 0 means that the infection level of the treated plants corresponds to that of the untreated control plants; an efficacy of 100 means that the treated plants were not infected.
# The expected efficacies of mixtures of active compounds were determined using Colby's formula (Colby, S. R. “Calculating synergistic and antagonistic responses of herbicide combinations”, Weeds, 15, 20-22, 1967) and compared with the observed efficacies.
# Colby's formula: E=x+y−x·y/100 E expected efficacy, expressed in % of the untreated control, when using the mixture of the active compounds A and B at the concentrations a and b x efficacy, expressed in % of the untreated control, when using the active compound A at the concentration a y efficacy, expressed in % of the untreated control, when using the active compound B at the concentration b
SMILES,Efficacy in % of the untreated control (1 ppm in the spray liquor) [%],Efficacy in % of the untreated control (4 ppm in the spray liquor) [%],Efficacy in % of the untreated control (16 ppm in the spray liquor) [%]
"N#Cc1sc2c(=O)c3ccccc3c(=O)c=2sc1C#N [II (dithianon), 5,10-dioxo-5,10-dihydronaphtho[2,3-b][1,4]dithiine-2,3-dicarbonitrile]",1,13,13
"CC1CCN(c2c(-c3c(F)cc(F)cc3F)c(Cl)nc3ncnn23)CC1 [I, 5-chloro-7-(4-methylpiperidin-1-yl)-6-(2,4,6-trifluorophenyl)-[1,2,4]triazolo[1,5-a]pyrimidine]",,51,
CC1CCN(c2c(-c3c(F)cccc3Cl)c(Cl)nc3ncnn23)CC1 [Comparison A],,13,
C[C@H](Nc1c(-c2c(F)cc(F)cc2F)c(Cl)nc2ncnn12)C(F)(F)F [Comparison B],,13,

# — US20060189634A1, “Fungicide mixtures” (priority 2003, published 2006)
